Data as given in publication PMC5754397, “Population pharmacokinetics of nintedanib, an inhibitor of tyrosine kinases, in patients with non-small cell lung cancer or idiopathic pulmonary fibrosis” (Cancer Chemotherapy and Pharmacology, 2017).
Where “and” joins values, the source holds several entries; their conditions need not be identical. Equal entries are not always repeated. Marks after values point to notes of the source that are not given here. One block for each compound: values may come before it.

Columns and labels:
[1] = system: target receptors; design: method as in PMID 21204634; conditions: cited from earlier work
[2] = system: VEGF or bFGF stimulation of human umbilical vascular endothelial cells; design: method as in Boehringer Ingelheim unpublished data, 14; conditions: VEGF or bFGF stimulation of HUVEC; ref Boehringer Ingelheim unpublished data, 14; cited from earlier work
[3] = Population pharmacokinetic analysis in healthy subjects after intravenous administration of nintedanib (one-compartment model); type: in vivo, human; conditions: healthy subjects, intravenous nintedanib; estimate (RSE%)
Text: The pharmacokinetic profile of BIBF 1202 was best described by a one-compartment model with first-order elimination (see Online Resource Fig. S1 for model structure). To account for formation of BIBF 1202 in the intestine or via hepatic first-pass effect, a first-order absorption with lag time (ALAG2) was implemented as per nintedanib absorption. The relative bioavailability (F2) and the absorption-rate constant (k a2) were implemented as functions of nintedanib F1 and k a, respectively (substantial drop in OFV as compared to a model, where F2 and k a2 were estimated independently of F1 and k a). This parametrization accounted for correlations between nintedanib and BIBF 1202 parameters and replaced the full variance–covariance matrix which was not applied due to the sequential modeling approach used. The rate of formation of BIBF 1202 (k met) during nintedanib systemic elimination was accounted by defining it as a function of nintedanib clearance: k met = CL/V2*ffM, where CL and V2 denote the clearance and central volume of distribution of nintedanib respectively, and ffM denotes the proportion of the nintedanib elimination resulting in BIBF 1202 formation. Due to the lack of data for BIBF 1202 given as an intravenous (IV) infusion, several parameter estimates were not identifiable (ffM, BIBF 1202 apparent volume of distribution [V3/F]) and were, therefore, fixed. The value for ffM was derived from pharmacokinetic data after IV administration of nintedanib (Online Resource Table S4) and the ratio of V3/F–V2/F was fixed based on information observed in rats. […] In addition to the (inter-individual) variability of F2 induced by the variability in F1 (F2 being proportional to F1), additional IIV could be implemented for F2.
Table S4 Structural parameters for nintedanib and BIBF 1202 from a population pharmacokinetic analysis based on healthy subjects (n=23^a, 372 observations) after intravenous administration of nintedanib
One subject (3 mg dose) was excluded from analysis due to increasing plasma concentrations of nintedanib after end of infusion

[4] = system: PDGFRα; design: method as in Boehringer Ingelheim unpublished data, 14; conditions: PDGFRα stimulation of primary lung fibroblasts; ref Boehringer Ingelheim unpublished data, 14; cited from earlier work
[5] = system: PDGFRβ; design: method as in Boehringer Ingelheim unpublished data, 14; conditions: PDGFRβ stimulation of primary lung fibroblasts; ref Boehringer Ingelheim unpublished data, 14; cited from earlier work
[6] = design: method as in PMID 21204634; conditions: dedicated ADME study; cited from earlier work
[7] = system: mouse xenograft models; design: method as in ref 7 = [7]; 7. European Medicines Agency (2014) Committee for Medicinal Products for Human Use (CHMP) Assessment Report for Vargatef (nintedanib), 25 September 2014. http://www.ema.europa.eu/docs/en_GB/document_l; conditions: cited from earlier work
[8] = Population pharmacokinetic model of metabolite BIBF 1202 plasma concentrations in patients with NSCLC or IPF treated with nintedanib; type: in vivo, human
Text: This population pharmacokinetic analysis pooled data from nintedanib treatment in four clinical studies; 1 Phase II (n = 73) and two Phase III trials in patients with NSCLC (LUME-Lung 1 (n = 652) and LUME-Lung 2 (n = 347)) and one Phase II trial (TOMORROW, n = 343) in patients with IPF [11] (data from IPF Phase III trials were not available at time of analysis). An overview of these studies is provided in Online Resource Table S1. In the NSCLC Phase II trial, patients with locally advanced or metastatic relapsed NSCLC in whom first- or second line platinum-based chemotherapy had failed and were randomized to nintedanib 150 or 250 mg twice-daily. Treatment continued until disease progression or intolerable toxicity. In the NSCLC Phase III trials, nintedanib 200 mg twice-daily or placebo was given in repeated 21 day treatment cycles in combination with single infusions of docetaxel 75 mg/m^2 (LUME-Lung 1 trial) or pemetrexed 500 mg/m^2 (LUME-Lung 2 trial), administered on day 1 of each cycle. Treatment cycles were continued until disease progression or intolerable toxicity. In the Phase II trial in patients with IPF [11], patients were randomized to a 52-week treatment period with one of the four doses of nintedanib (50 mg once or twice-daily, 100, 150 mg twice-daily) or placebo. In all four trials, dose reductions and interruptions were allowed to manage adverse events. All studies were conducted in accordance with the Declaration of Helsinki and with approval of the local ethics committees. Written informed consent was obtained from all patients before study entry.
Blood sampling schema for measurement of nintedanib plasma concentrations varied. For all trials, at least two pre-dose and two post-dose blood samples were scheduled during treatment (see Online Resource Table S1). In addition, more extensive sampling was performed in the two Phase II trials. Nintedanib and BIBF 1202 plasma concentrations were analyzed by validated liquid chromatography–mass spectrometry (HPLC–MS/MS) methods. The calibration curves covered the range 0.5–500 ng/mL for nintedanib and 1–1000 ng/mL for BIBF 1202 in undiluted plasma samples and were linear over this range.
The population pharmacokinetic analysis was performed using non-linear mixed-effects modeling techniques (NONMEM, version VI 2.0, ICON Development Solutions, Ellicott City, Maryland, USA). The first-order conditional estimation algorithm with interaction was used. Data processing, diagnostic plots, and calculation of descriptive statistics were performed using R version 2.12.1 (http://www.rproject.org) and SAS version 9.2 (SAS Institute Inc, Cary, NC, USA). Bootstrap analysis was performed using Perl-speaks-NONMEM, version 3.5.3 [24, 25].
Using fixed pharmacokinetic parameter estimates from the nintedanib base model (typical values plus empirical Bayes estimates of individual η), the base model of BIBF 1202 was developed. Plasma concentrations of nintedanib and BIBF 1202 were reported in nM to account for differences in their molecular weight.
The covariate analysis for BIBF 1202 was based on the fixed pharmacokinetic parameters of the final nintedanib model and base model of BIBF 1202 and followed the same principles described for nintedanib (see Online Resource Table S3).
Model evaluation for BIBF 1202 was analogous to nintedanib, with the exception of the non-parametric bootstrap analysis.
Finally, after the sequential pharmacokinetic analysis for nintedanib and BIBF 1202, the parameters for the final models of nintedanib and BIBF 1202 were estimated simultaneously.
To illustrate individual covariate effects, the change in the median steady-state nintedanib and BIBF 1202 plasma concentration–time profiles were compared to the exposure in a typical patient. The typical patient was defined by baseline medians (continuous covariate) and modes (categorical covariate) of the respective covariates in the total analyzed population. […]

[9] = final BIBF 1202 model (sequential fit), estimate (RSE%)
[10] = final BIBF 1202 model (sequential fit), reference Caucasian/Black origin = 1.00, estimate (RSE%)

Compound: CN1CCN(CC(=O)N(C)c2ccc(N/C(=C3\C(=O)Nc4cc(C(=O)O[C@@H]5O[C@H](C(=O)O)[C@@H](O)[C@H](O)[C@H]5O)ccc43)c3ccccc3)cc2)CC1 [BIBF 1202 glucuronide]
in vitro activity at the target receptors [1]: did not show in vitro activity

CL2, total body clearance for BIBF 1202 [3]: 0.513 (17.0) L/h | changes in BIBF 1202 exposure by ECOG performance status and LDH ([8]; covariates influencing BIBF 1202 but not nintedanib exposure): < 30% | IIV in F2 ([8]; final BIBF 1202 model (sequential fit), estimate (RSE% on the variance scale)): 56.7 (8.60^f) CV% and 56.7 (8.60^e) CV% | CL2/F (θCL2), apparent total body clearance for BIBF 1202 [8, 9]: 7.05 (6.37) L/h | F2/F1 (θF2F1), ratio of relative bioavailabilities BIBF 1202 to nintedanib [8, 9]: 0.0110 (11.3) | covariate effect on F2, θLDH_Breakpoint (breakpoint for LDH) [8, 9]: 688 (22.0) U/L | covariate effect on F2, θWT [8, 9]: -0.848 (12.2) | ka2/ka (θka2ka), ratio of absorption rate constants BIBF 1202 to nintedanib [8, 9]: 1.47 (8.16) | covariate effect on F2, θLDH (coefficient for LDH [U/L]) ([8]; final BIBF 1202 model (sequential fit), hockey-stick function, estimate (RSE%)): 0.000656 (22.1) | covariate effect on F2, θEthnicity: Asian origin (except for Indian) [8, 10]: 1.20 (4.83) | covariate effect on F2, θEthnicity: Indian origin [8, 10]: 1.90 (13.5) | covariate effect on F2, θECOG: ECOG≥1 ([8]; final BIBF 1202 model (sequential fit), reference ECOG=0 = 1.00, estimate (RSE%)): 1.16 (4.16) | covariate effect on ka2, θTrial: NSCLC Phase II and IPF Phase II ([8]; final BIBF 1202 model (sequential fit), reference LUME-Lung 1 and LUME-Lung 2 = 1.00, estimate (RSE%)): 0.756 (7.72) | covariate effect on ka2, θNSCLC_histology: non-adenocarcinoma ([8]; final BIBF 1202 model (sequential fit), reference adenocarcinoma = 1.00, estimate (RSE%)): 1.36 (8.90) | share of BIBF 1202 in plasma formed systemically ([8]; final model, systemic formation rate fixed to the value from the IV study): about 8% | upper limit of the predicted 2 h post-dose concentration for Indian patients ([8]; pcQPC of the final BIBF 1202 model, 95% prediction interval of simulated medians, steady state): 88 ng/mL | F2/F1 (θF2F1) ([8]; simultaneous estimation): 0.0153 (–) | IIV in F2 ([8]; simultaneous estimation): 47.9 (–) CV% | covariate effect on F2, θECOG: ECOG≥1 ([8]; simultaneous estimation): 1.13 (–) | covariate effect on F2, θEthnicity: Asian origin (except for Indian) ([8]; simultaneous estimation): 1.19 (–) | covariate effect on F2, θEthnicity: Indian origin ([8]; simultaneous estimation): 1.81 (–) | covariate effect on F2, θLDH (coefficient for LDH [U/L]) ([8]; simultaneous estimation): 0.00064 (–) | covariate effect on F2, θLDH_Breakpoint (breakpoint for LDH) ([8]; simultaneous estimation): 683 (–) U/L | covariate effect on F2, θWT ([8]; simultaneous estimation): -0.791 (–) | covariate effect on ka2, θNSCLC_histology: non-adenocarcinoma ([8]; simultaneous estimation): 1.24 (–) | covariate effect on ka2, θTrial: NSCLC Phase II and IPF Phase II ([8]; simultaneous estimation): 0.864 (–) | ka2/ka (θka2ka) ([8]; simultaneous estimation): 1.14 (–) | CL2/F (θCL2) ([8]; simultaneous estimation of nintedanib and BIBF 1202 models, RSE not available): 9.68 (–) L/h
Compound: CN1CCN(CC(=O)N(C)c2ccc(N/C(=C3\C(=O)Nc4cc(C(=O)O)ccc43)c3ccccc3)cc2)CC1 [BIBF 1202]
lower potency compared to nintedanib [2]: 9–10 fold | lower potency compared to nintedanib [4]: 265 fold | lower potency compared to nintedanib [5]: 607 fold | metabolic ratio for AUC (BIBF 1202 to nintedanib) [6]: ~1 | metabolic ratio for Cmax (BIBF 1202 to nintedanib) [6]: ~1 | efficacy in mouse xenograft models [7]: not effective
